Data on 18 molecules can be found in ChEMBL document CHEMBL3763074, “Hesperetin derivatives: Synthesis and anti-inflammatory activity” (Bioorg Med Chem Lett, 2016).

Calls of active or inactive are those of the source. The calls are words filed in the database; no cut-off is given here.

In the first series the test system is RAW264.7. The series is described as follows: Antiinflammatory activity in mouse RAW264.7 assessed as inhibition of LPS-induced notch-1 expression at 10 uM pretreated with 1 ug/ml LPS for 22 hrs followed by addition of compound for 24 hrs by Western blot analysis. The format is functional, cell-based.
Conditions: not given
As to `COc1ccc([C@@H]2CC(=O)c3c(cc(O)c(CNC(C)(C)C)c3O)O2)cc1O`, the result was Active.
For `COc1ccc([C@@H]2CC(=O)c3c(cc(O)c(CNC(C)C)c3O)O2)cc1O`, the outcome was Active.
`CCN1CCN(Cc2c(O)cc3c(c2O)C(=O)C[C@@H](c2ccc(OC)c(O)c2)O3)CC1`: the outcome was Active.

In another series the test system is RAW264.7. Description: Antiinflammatory activity in mouse RAW264.7 assessed as decrease in LPS-induced IL-6 production at 10 uM pretreated with 1 ug/ml LPS for 22 hrs followed by addition of compound for 24 hrs by ELISA. The class given is functional, cell-based.
Conditions: not given
Background: An ELISA detects its analyte on a solid surface through an enzyme-linked reagent.
With `COc1ccc([C@@H]2CC(=O)c3c(cc(O)c(CN(C)C)c3O)O2)cc1O`, the outcome was Active.
Take `COc1ccc([C@@H]2CC(=O)c3c(cc(O)c(CNC(C)(C)C)c3O)O2)cc1O`: the result was Active.
Turning to `COc1ccc([C@@H]2CC(=O)c3c(cc(O)c(CN4CCN(C)CC4)c3O)O2)cc1O`, the outcome was Active.
Turning to `COc1ccc([C@@H]2CC(=O)c3c(O)cc(O)cc3O2)cc1O` [HESPERETIN], the outcome was Active.
Turning to `COc1ccc(CCNCc2c(O)cc3c(c2O)C(=O)C[C@@H](c2ccc(OC)c(O)c2)O3)cc1`, the outcome was Active.
Still for that read-out and setting: the value for `COc1ccc([C@@H]2CC(=O)c3c(cc(O)c(CNC(C)c4ccccc4)c3O)O2)cc1O` (stereo not given in full) was “Active”.
Regarding `CCN(CC)Cc1c(O)cc2c(c1O)C(=O)C[C@@H](c1ccc(OC)c(O)c1)O2`, the outcome was Active.
`COc1ccc([C@@H]2CC(=O)c3c(cc(O)c(CNCCc4ccc([N+](=O)[O-])cc4)c3O)O2)cc1O`: the result was Active.
Still for that read-out and setting: the value for `COc1ccc([C@@H]2CC(=O)c3c(cc(O)c(CNC(C)C)c3O)O2)cc1O` was “Active”; that for `COc1ccc([C@@H]2CC(=O)c3c(cc(O)c(CN4CCN(CCN5CCOCC5)CC4)c3O)O2)cc1O` was “Active”; that for `COc1ccc([C@@H]2CC(=O)c3c(cc(O)c(CN4CCN(CCO)CC4)c3O)O2)cc1O` was “Active”.
On to `CCN1CCN(Cc2c(O)cc3c(c2O)C(=O)C[C@@H](c2ccc(OC)c(O)c2)O3)CC1`, for which the result was Active.
Regarding `COc1ccc([C@@H]2CC(=O)c3c(cc(O)c(CN4CCOCC4)c3O)O2)cc1O`, the result was Active.
As for `COc1ccc([C@@H]2CC(=O)c3c(cc(O)c(CNCCc4ccccc4)c3O)O2)cc1O`, the result was Active.
Take `CCC(C)NCc1c(O)cc2c(c1O)C(=O)C[C@@H](c1ccc(OC)c(O)c1)O2` (stereo not given in full): the result was Active.
As to `COc1ccc2c(c1)c(CC(=O)O)c(C)n2C(=O)c1ccc(Cl)cc1`, the result was Active.
Take `COc1ccc([C@@H]2CC(=O)c3c(cc(O)c(CNCCc4ccc(Cl)cc4)c3O)O2)cc1O`: the outcome was Active.
As for `COc1ccc([C@@H]2CC(=O)c3c(cc(O)c(CNCCCN4CCOCC4)c3O)O2)cc1O`, the outcome was Active.

Another series deals with RAW264.7. The series is described as follows: Antiinflammatory activity in mouse RAW264.7 assessed as decrease in LPS-induced TNF-alpha production pretreated with 1 ug/ml LPS for 22 hrs followed by addition of compound for 24 hrs by ELISA. The class given is functional, cell-based.
Conditions: not given
On to `COc1ccc([C@@H]2CC(=O)c3c(cc(O)c(CNC(C)(C)C)c3O)O2)cc1O`, for which the Activity result is “Dose-dependent effect”.
As to `COc1ccc([C@@H]2CC(=O)c3c(cc(O)c(CNC(C)C)c3O)O2)cc1O`, the Activity entry was “Dose-dependent effect”.
As to `CCN1CCN(Cc2c(O)cc3c(c2O)C(=O)C[C@@H](c2ccc(OC)c(O)c2)O3)CC1`, the Activity entry was “Dose-dependent effect”.

The subject of the next series is RAW264.7. The series is described as follows: Cytotoxicity against mouse RAW264.7 cells at 100 uM for 24 hrs by MTT assay. The class given is cell-based. The following applies: raw264.7, 24 h. On the technique in general: Tetrazolium assays rely on reduction of a dye to a coloured formazan, in cell work by metabolically active cells.
Regarding `COc1ccc([C@@H]2CC(=O)c3c(cc(O)c(CNC(C)(C)C)c3O)O2)cc1O`, the Activity entry is “Toxic”.
On the same count and under the same terms, the value for `COc1ccc(CCNCc2c(O)cc3c(c2O)C(=O)C[C@@H](c2ccc(OC)c(O)c2)O3)cc1` was “Toxic”; that for `CCN1CCN(Cc2c(O)cc3c(c2O)C(=O)C[C@@H](c2ccc(OC)c(O)c2)O3)CC1` was “Toxic”; that for `COc1ccc([C@@H]2CC(=O)c3c(cc(O)c(CNCCc4ccccc4)c3O)O2)cc1O` was “Toxic”.

For the next series, the system named is RAW264.7. Description: Antiinflammatory activity in LPS-induced mouse RAW264.7 assessed as inhibition of LPS-induced iNOS expression pretreated with 1 ug/ml LPS for 22 hrs followed by addition of compound for 24 hrs by Western blot analysis. The format is functional, cell-based.
Conditions: not given
(Immunoblotting shows a protein as a band on a membrane.)
As to `COc1ccc([C@@H]2CC(=O)c3c(cc(O)c(CNC(C)(C)C)c3O)O2)cc1O`, the Activity result was “Dose-dependent effect”.

Tested on in a further series: not listed separately
Description: Octanol/water partition coefficient, logP of the compound by shake flask method. The format is physicochemical.
Conditions: not given
Turning to `COc1ccc([C@@H]2CC(=O)c3c(cc(O)c(CN(C)C)c3O)O2)cc1O`, the log partition coefficient (logP) (as a rule, a log measure of how a compound divides between an organic and an aqueous phase) came to 1.03.
The molecule `COc1ccc([C@@H]2CC(=O)c3c(cc(O)c(CNC(C)(C)C)c3O)O2)cc1O` showed a lipophilicity (logP) of -0.76.
`COc1ccc([C@@H]2CC(=O)c3c(cc(O)c(CN4CCN(C)CC4)c3O)O2)cc1O` registered a lipophilicity (logP) of 1.19.
Still for that read-out and setting: as for `COc1ccc([C@@H]2CC(=O)c3c(O)cc(O)cc3O2)cc1O` [HESPERETIN], the figure is 2.15; as for `COc1ccc(CCNCc2c(O)cc3c(c2O)C(=O)C[C@@H](c2ccc(OC)c(O)c2)O3)cc1`, 1.56; as for `COc1ccc([C@@H]2CC(=O)c3c(cc(O)c(CNC(C)c4ccccc4)c3O)O2)cc1O` (stereo not given in full), 1.72.
As to `CCN(CC)Cc1c(O)cc2c(c1O)C(=O)C[C@@H](c1ccc(OC)c(O)c1)O2`, the logP came out at 1.68. The logP values of the last two molecules are within 0.2 log units of each other.
The same measure, in the same setting: the value for `COc1ccc([C@@H]2CC(=O)c3c(cc(O)c(CNCCc4ccc([N+](=O)[O-])cc4)c3O)O2)cc1O` was 1.73.
In the case of `COc1ccc([C@@H]2CC(=O)c3c(cc(O)c(CNC(C)C)c3O)O2)cc1O`, the logP was -0.26.
In turn, `COc1ccc([C@@H]2CC(=O)c3c(cc(O)c(CN4CCN(CCN5CCOCC5)CC4)c3O)O2)cc1O` had a lipophilicity (logP) of 1.18.
Molecule `COc1ccc([C@@H]2CC(=O)c3c(cc(O)c(CN4CCN(CCO)CC4)c3O)O2)cc1O` had a logP of 1.15.
With `CCN1CCN(Cc2c(O)cc3c(c2O)C(=O)C[C@@H](c2ccc(OC)c(O)c2)O3)CC1`, the logP is -0.75.
As to `COc1ccc([C@@H]2CC(=O)c3c(cc(O)c(CN4CCOCC4)c3O)O2)cc1O`, the logP is 1.23.
In the case of `COc1ccc([C@@H]2CC(=O)c3c(cc(O)c(CNCCc4ccccc4)c3O)O2)cc1O`, the log partition coefficient (logP) was found to be 1.67.
Same read-out and setting: as for `CCC(C)NCc1c(O)cc2c(c1O)C(=O)C[C@@H](c1ccc(OC)c(O)c1)O2` (stereo not given in full), the figure is 0.04.
Turning to `COc1ccc([C@@H]2CC(=O)c3c(cc(O)c(CNCCc4ccc(Cl)cc4)c3O)O2)cc1O`, the logP stood at 1.77.
`COc1ccc([C@@H]2CC(=O)c3c(cc(O)c(CNCCCN4CCOCC4)c3O)O2)cc1O` displayed a log partition coefficient (logP) of 1.2.

The next series concerns RAW264.7. Description: Cytotoxicity against mouse RAW264.7 cells at 1 to 10 uM for 24 hrs by MTT assay. The format is cell-based. The following applies: raw264.7, 24 h.
Take `COc1ccc([C@@H]2CC(=O)c3c(cc(O)c(CNC(C)(C)C)c3O)O2)cc1O`: the Activity entry is reported as “Non-toxic”.
In the case of `COc1ccc([C@@H]2CC(=O)c3c(cc(O)c(CN4CCN(C)CC4)c3O)O2)cc1O`, the Activity entry was “Non-toxic”.
Turning to `COc1ccc([C@@H]2CC(=O)c3c(O)cc(O)cc3O2)cc1O` [HESPERETIN], the Activity result is “Non-toxic”.
On to `COc1ccc(CCNCc2c(O)cc3c(c2O)C(=O)C[C@@H](c2ccc(OC)c(O)c2)O3)cc1`, for which the Activity result is “Non-toxic”.
For `CCN(CC)Cc1c(O)cc2c(c1O)C(=O)C[C@@H](c1ccc(OC)c(O)c1)O2`, the Activity entry is “Non-toxic”.
Take `COc1ccc([C@@H]2CC(=O)c3c(cc(O)c(CNC(C)C)c3O)O2)cc1O`: the Activity entry is “Non-toxic”.
`CCN1CCN(Cc2c(O)cc3c(c2O)C(=O)C[C@@H](c2ccc(OC)c(O)c2)O3)CC1`: the Activity entry was “Non-toxic”.
For the molecule `COc1ccc([C@@H]2CC(=O)c3c(cc(O)c(CNCCc4ccccc4)c3O)O2)cc1O`, the Activity entry is reported as “Non-toxic”.

The test system of another series is RAW264.7. Description: Antiinflammatory activity in mouse RAW264.7 assessed as decrease in LPS-induced IL-6 production pretreated with 1 ug/ml LPS for 22 hrs followed by addition of compound for 24 hrs by ELISA. The format is functional, cell-based.
Conditions: not given
For `COc1ccc([C@@H]2CC(=O)c3c(cc(O)c(CNC(C)(C)C)c3O)O2)cc1O`, the Activity result is “Dose-dependent effect”.
Turning to `COc1ccc([C@@H]2CC(=O)c3c(cc(O)c(CNC(C)C)c3O)O2)cc1O`, the Activity entry was “Dose-dependent effect”.
In the case of `CCN1CCN(Cc2c(O)cc3c(c2O)C(=O)C[C@@H](c2ccc(OC)c(O)c2)O3)CC1`, the Activity entry was “Dose-dependent effect”.

The next series concerns RAW264.7. The series is described as follows: Antiinflammatory activity in mouse RAW264.7 assessed as decrease in LPS-induced TNF-alpha production at 10 uM pretreated with 1 ug/ml LPS for 22 hrs followed by addition of compound for 24 hrs by ELISA. The format is functional, cell-based.
Conditions: not given
Regarding `COc1ccc([C@@H]2CC(=O)c3c(cc(O)c(CN(C)C)c3O)O2)cc1O`, the result was Active.
As for `COc1ccc([C@@H]2CC(=O)c3c(cc(O)c(CNC(C)(C)C)c3O)O2)cc1O`, the result was Active.
Regarding `COc1ccc([C@@H]2CC(=O)c3c(cc(O)c(CN4CCN(C)CC4)c3O)O2)cc1O`, the outcome was Active.
The same measure, in the same setting: as for `COc1ccc([C@@H]2CC(=O)c3c(O)cc(O)cc3O2)cc1O` [HESPERETIN], the entry is “Active”.
As to `COc1ccc(CCNCc2c(O)cc3c(c2O)C(=O)C[C@@H](c2ccc(OC)c(O)c2)O3)cc1`, the outcome was Active.
In the case of `COc1ccc([C@@H]2CC(=O)c3c(cc(O)c(CNC(C)c4ccccc4)c3O)O2)cc1O` (stereo not given in full), the result was Active.
As to `CCN(CC)Cc1c(O)cc2c(c1O)C(=O)C[C@@H](c1ccc(OC)c(O)c1)O2`, the result was Active.
Same read-out and setting: as for `COc1ccc([C@@H]2CC(=O)c3c(cc(O)c(CNCCc4ccc([N+](=O)[O-])cc4)c3O)O2)cc1O`, the entry is “Active”; as for `COc1ccc([C@@H]2CC(=O)c3c(cc(O)c(CNC(C)C)c3O)O2)cc1O`, “Active”.
Turning to `COc1ccc([C@@H]2CC(=O)c3c(cc(O)c(CN4CCN(CCN5CCOCC5)CC4)c3O)O2)cc1O`, the result was Active.
On to `COc1ccc([C@@H]2CC(=O)c3c(cc(O)c(CN4CCN(CCO)CC4)c3O)O2)cc1O`, for which the outcome was Active.
Same read-out and setting: as for `CCN1CCN(Cc2c(O)cc3c(c2O)C(=O)C[C@@H](c2ccc(OC)c(O)c2)O3)CC1`, the entry is “Active”.
On to `COc1ccc([C@@H]2CC(=O)c3c(cc(O)c(CN4CCOCC4)c3O)O2)cc1O`, for which the outcome was Active.
Consider `COc1ccc([C@@H]2CC(=O)c3c(cc(O)c(CNCCc4ccccc4)c3O)O2)cc1O`, for which the outcome was Active.
For `CCC(C)NCc1c(O)cc2c(c1O)C(=O)C[C@@H](c1ccc(OC)c(O)c1)O2` (stereo not given in full), the result was Active.
In the case of `COc1ccc2c(c1)c(CC(=O)O)c(C)n2C(=O)c1ccc(Cl)cc1`, the outcome was Active.
Regarding `COc1ccc([C@@H]2CC(=O)c3c(cc(O)c(CNCCc4ccc(Cl)cc4)c3O)O2)cc1O`, the outcome was Active.
Take `COc1ccc([C@@H]2CC(=O)c3c(cc(O)c(CNCCCN4CCOCC4)c3O)O2)cc1O`: the result was Active.
